Experimental data taken from ChEMBL document CHEMBL3044797 (Crop Prot, 2008).
In brackets after ≈: the same amount, converted by molar mass.

What was measured:
[1] = tested on: Fusarium graminearum; assay: Fungicidal activity against carbendazim-resistant Fusarium graminearum isolate; format: functional, organism-based
[2] = tested on: Fusarium graminearum; assay: Fungicidal activity against compound-resistant Fusarium graminearum isolate; format: functional, organism-based

CCOC(=O)/C(C#N)=C(/N)c1ccccc1
EC50 [1]: 0.115 µg/mL (≈ 0.532 µM) | EC50 [2]: 0.14 µg/mL (≈ 0.647 µM)
